Test: xn = mol fraction of the nth substance listed
Conditions: 101 kPa, Liquid, Vibrating tube method

N#Cc1ccccc1 [benzonitrile] + CCCCCCCCC
mass density [kg/m3]
Conditions | 285.15 K | 288.15 K | 293.15 K | 298.15 K | 303.15 K | 308.15 K | 313.15 K
x1 = 0.0239 | 728.45 | 726.13 | 722.24 | 718.34 | 714.42 | 710.49 | 706.54
x1 = 0.0499 | 732.81 | 730.47 | 726.57 | 722.65 | 718.72 | 714.77 | 710.81
x1 = 0.0989 | 741.4 | 739.05 | 735.11 | 731.16 | 727.2 | 723.22 | 719.23
x1 = 0.1985 | 760.34 | 757.95 | 753.95 | 749.94 | 745.93 | 741.89 | 737.84
x1 = 0.2542 | 771.77 | 769.36 | 765.34 | 761.3 | 757.25 | 753.19 | 749.11
x1 = 0.2998 | 781.58 | 779.16 | 775.11 | 771.05 | 766.97 | 762.89 | 758.79
x1 = 0.4005 | 804.92 | 802.47 | 798.37 | 794.26 | 790.14 | 786 | 781.85
x1 = 0.4966 | 829.64 | 827.16 | 823.01 | 818.85 | 814.68 | 810.5 | 806.31
x1 = 0.5998 | 859.12 | 856.6 | 852.4 | 848.19 | 843.96 | 839.73 | 835.48
x1 = 0.6996 | 891.01 | 888.45 | 884.18 | 879.91 | 875.63 | 871.34 | 867.05
x1 = 0.7999 | 926.93 | 924.34 | 920 | 915.67 | 911.33 | 906.99 | 902.64
x1 = 0.9001 | 967.24 | 964.61 | 960.22 | 955.83 | 951.44 | 947.05 | 942.65
x1 = 0.9497 | 988.96 | 986.32 | 981.91 | 977.49 | 973.08 | 968.67 | 964.25
x1 = 0.9805 | 1003.05 | 1000.4 | 995.97 | 991.55 | 987.13 | 982.7 | 978.27
x1 = 1 | 1012.21 | 1009.55 | 1005.12 | 1000.69 | 996.26 | 991.83 | 987.4

N#Cc1ccccc1 [benzonitrile] + CCCCCCCC
mass density [kg/m3]
Conditions | 283.15 K | 288.15 K | 293.15 K | 298.15 K | 303.15 K | 308.15 K | 313.15 K | 318.15 K
x1 = 0.022 | 714.94 | 710.93 | 706.9 | 702.86 | 698.79 | 694.71 | 690.6 | 686.47
x1 = 0.0576 | 721.95 | 717.92 | 713.87 | 709.81 | 705.72 | 701.62 | 697.49 | 693.34
x1 = 0.102 | 731.07 | 727.01 | 722.94 | 718.85 | 714.74 | 710.61 | 706.47 | 702.29
x1 = 0.1999 | 752.43 | 748.32 | 744.2 | 740.06 | 735.9 | 731.73 | 727.54 | 723.33
x1 = 0.2998 | 776.16 | 772.01 | 767.84 | 763.66 | 759.46 | 755.25 | 751.02 | 746.78
x1 = 0.4001 | 802.02 | 797.83 | 793.63 | 789.41 | 785.18 | 780.93 | 776.67 | 772.39
x1 = 0.4637 | 819.57 | 815.35 | 811.12 | 806.89 | 802.63 | 798.37 | 794.09 | 789.79
x1 = 0.4997 | 829.9 | 825.68 | 821.44 | 817.19 | 812.93 | 808.65 | 804.35 | 800.04
x1 = 0.5004 | 830.12 | 825.9 | 821.66 | 817.41 | 813.14 | 808.86 | 804.56 | 800.25
x1 = 0.6001 | 860.7 | 856.42 | 852.14 | 847.85 | 843.55 | 839.23 | 834.9 | 830.56
x1 = 0.7001 | 894.21 | 889.88 | 885.55 | 881.22 | 876.87 | 872.51 | 868.15 | 863.78
x1 = 0.7998 | 930.65 | 926.27 | 921.9 | 917.52 | 913.13 | 908.74 | 904.34 | 899.94
x1 = 0.9001 | 970.69 | 966.28 | 961.87 | 957.46 | 953.05 | 948.63 | 944.21 | 939.78
x1 = 0.95 | 991.86 | 987.44 | 983.01 | 978.59 | 974.17 | 969.74 | 965.31 | 960.88
x1 = 0.9801 | 1005.05 | 1000.62 | 996.19 | 991.77 | 987.34 | 982.91 | 978.48 | 974.05
x1 = 1 | 1013.99 | 1009.55 | 1005.12 | 1000.69 | 996.26 | 991.83 | 987.4 | 982.96

— the NIST ThermoML archive (doi:10.1021/je100145f)
